Legend:
[1] = tested on: MITF; test: expression level of mRNA of MITF in melanocytes (real-time RT-PCR); type: cell-based
Procedure: (§1) 1.4×10^5 melanocytes were inoculated in wells of 6-well culture plate, and a medium 254 (produced by KURABO […] LTD.; M254500) was added to the wells. Subsequently, the plate was incubated for 24 hours at a temperature of 37° C. in a 5% CO2 environment.
(§2) Sirolimus was added to the respective wells so as to have a final concentration of 0 nM (that is, no sirolimus is added to a culture medium), 1 nmol/L, 10 nmol/L, and 20 nmol/L, respectively. The plates were incubated for 24 hours or 48 hours at a temperature of 37° C. in a 5% CO2 environment.
(§3) From the wells thus incubated, the medium 254 was removed. Then, an operation of adding PBS to the wells and removing the PBS from the wells was carried out three times to wash the melanocytes with the PBS.
(§4) To the wells from which the PBS had been removed, 175 μL of an RNA lysis buffer was added. The RNA lysis buffer is attached to a kit of an SV Total RNA Solution System (manufactured by Promega Corporation; Z3105).
(§5) Melanocytes were peeled off the plate with use of a cell scraper.
(§6) The RNA lysis buffer containing melanocytes was collected into a 1.5 mL Eppendorf tube. Then, RNAs were extracted from the collected buffer.
(§7) Real-time RT-PCR was carried out with use of the RNAs to detect expression of mRNAs of MITF, mRNAs of TYR, mRNAs of TYRP1, and mRNAs of GAPDH. An expression level of the mRNAs of MITF, an expression level of the mRNAs of TYR, and an expression level of the mRNAs of TYRP1 were each calculated as a relative expression level with respect to an expression level of the mRNA of GAPD.
(§8) This experiment was carried out three times to calculate an average value and a standard deviation of relative expression levels of mRNAs of each of MITF, TYR, and TYRP1. Whether or not there was a statistically significant difference between test results obtained with use of the respective external medicines was checked by calculating a p value with use of a Student's t-test having no correspondence. In a case where the p value was less than 0.05, a statistically significant difference was recognized.
(§9) To detect expression of the mRNAs of MITF, TagMan® Gene Expression Assays (produced by Applied biosystems, Inc.; Hs00165156_m1) was used. To detect expression of the mRNAs of TYR, TagMan® Gene Expression Assays (produced by Applied biosystems, Inc.; Hs00165976_m1). To detect expression of the mRNAs of TYRP1, TagMan® Gene Expression Assays (produced by Applied biosystems, Inc.; Hs00167051_m1) was used. To detect expression of the mRNAs of GAPDH, TagMan® Gene Expression Assays (produced by Applied biosystems, Inc.; Hs99999905_m1) was used.

[2] = tested on: TYR; test: expression level of mRNA of TYR in melanocytes (real-time RT-PCR); type: cell-based
Procedure: as §1, §2, §3, §4, §5, §6, §7, §8, §9

[3] = tested on: VEGF; test: inhibition of VEGF expression in cell of angiofibroma; type: cell-based, human
Procedure: (§10) A cell of angiofibroma, a human fibroblast, and HaCat, each of which was isolated from a patient with tuberous sclerosis complex, were used. Isolation of the cell of angiofibroma was carried out by removing angiofibroma from a patient who wished the angiofibroma to be removed and then using the primary culturing method. […] HaCat was purchased from German Cancer Research Center (dkfz). The cells obtained from the respective patients were used with the patients' consent.
(§11) The cell of angiofibroma, the human fibroblast, and HaCat were each cultured with use of a DME culture medium at a temperature of 37° C. in a 5% CO2 environment. During the culture of these cells, sirolimus was added to each of the culture mediums so as to have a final concentration of 0 nM (that is, no sirolimus is added to a culture medium (a control)), 1 nM, 10 nM, or 20 nM. The cells were each incubated again at a temperature of 37° C. in a 5% CO2 environment, and a culture supernatant was collected […] after sirolimus was added. A concentration of VEGF in the collected culture supernatant was measured with use of a kit (Quantikine® Human VEGF manufactured by R&D SYSTEMS®) for detecting VEGF.

[4] = tested on: TYRP1; test: expression level of mRNA of TYRP1 in melanocytes (real-time RT-PCR); type: cell-based
Procedure: as §1, §2, §3, §4, §5, §6, §7, §8, §9

[5] = tested on: VEGF; test: inhibition of VEGF expression in HaCat; type: cell-based; settings: 20 nM, 72 hours
Procedure: as §10, §11

[6] = tested on: VEGF; test: inhibition of VEGF expression in human fibroblast; type: cell-based; settings: 20 nM, 72 hours
Procedure: as §10, §11

## CO[C@H]1C[C@@H]2CC[C@@H](C)[C@@](O)(O2)C(=O)C(=O)N2CCCC[C@H]2C(=O)O[C@H]([C@H](C)C[C@@H]2CC[C@@H](O)[C@H](OC)C2)CC(=O)[C@H](C)/C=C(\C)[C@@H](O)[C@@H](OC)C(=O)[C@H](C)C[C@H](C)/C=C/C=C/C=C/1C [sirolimus]
[1]; 1 nM, 24 hours, relative to GAPDH, untreated 24 h 100.00±3.37
  relative expression levels of MITF: 152.48±3.47
[1]; 1 nM, 48 hours, untreated 48 h 107.95±1.38
  relative expression levels of MITF: 129.41±3.43
[1]; 20 nM, 24 hours, untreated 24 h 100.00±3.37
  relative expression levels of MITF: 152.18±14.75
[1]; 20 nM, 48 hours, untreated 48 h 107.95±1.38
  relative expression levels of MITF: 141.56±3.52
[2]; 1 nM, 24 hours, untreated 24 h 0.640±0.036
  relative expression levels of TYR: 0.820±0.047
[2]; 1 nM, 48 hours, untreated 48 h 0.771±0.009
  relative expression levels of TYR: 0.760±0.044
[2]; 20 nM, 24 hours, untreated 24 h 0.640±0.036
  relative expression levels of TYR: 0.921±0.029
[2]; 20 nM, 48 hours, untreated 48 h 0.771±0.009
  relative expression levels of TYR: 0.858±0.022
[3]; 1 nM, 48 hours, untreated 260.2857
  concentration of VEGF in culture supernatant: 113.1428 pg/mL
[3]; 10 nM, 48 hours, untreated 260.2857
  concentration of VEGF in culture supernatant: 92.4285 pg/mL
[3]; 20 nM, 72 hours
  concentration of VEGF decreased to (% of untreated): about 20%
  rate of decrease in concentration of VEGF (ratio treated/untreated): 0.196
[3]; 20 nM, 72 hours, control 858.4
  concentration of VEGF in culture supernatant: 168 pg/mL
[4]; 1 nM, 24 hours, untreated 24 h 1.031±0.027
  relative expression levels of TYRP: 1.333±0.055
[4]; 1 nM, 48 hours, untreated 48 h 1.338±0.029
  relative expression levels of TYRP: 1.450±0.028
[4]; 20 nM, 24 hours, untreated 24 h 1.031±0.027
  relative expression levels of TYRP: 1.652±0.031
[4]; 20 nM, 48 hours, untreated 48 h 1.338±0.029
  relative expression levels of TYRP: 1.514±0.124
[5]
  concentration of VEGF decreased to (% of untreated): about 40%
  rate of decrease in concentration of VEGF (ratio treated/untreated): 0.405
[5]; control 1849.9
  concentration of VEGF in culture supernatant: 749.9 pg/mL
[6]
  concentration of VEGF decreased to (% of untreated): about 30%
  rate of decrease in concentration of VEGF (ratio treated/untreated): 0.336
[6]; control 1492.7
  concentration of VEGF in culture supernatant: 501.3 pg/mL

From patent US20130317053A1, “EXTERNALLY-USED DRUG FOR TREATING SKIN DISORDER AND METHOD FOR PRODUCING SAME” (OSAKA UNIVERSITY, priority 2011, published 2013)
